Data reported in ChEMBL document CHEMBL3507680, “University of Dundee, Gates Library screen for HepG2 cell viability”.

Test: Human HepG2 cell viability assay in 384 well format
Assay type: toxicity, cell-based
Parameters: dose 125 nL, time 70.5 hour; cytotoxicity at 70.5 h: concentration not given beside the values
Conditions: HepG2 cells, read-out: Inhibition

Row | SMILES | cytotoxicity at 70.5 h
1 | CCC(C)(C)n1nnnc1C(c1cccs1)N1CCc2ccccc21 (configuration not stated) | -1.64%
2 | COc1ccc(C2CC(=O)Nc3nc(N4CCOCC4)sc32)c(OC)c1 (configuration not stated) | -21.3%
3 | CNc1nc2c(s1)C(c1ccccc1Cl)CC(=O)N2 (configuration not stated) | -21.9%
4 | NC(=O)c1ccc2c(c1)nc1n2CCN(Cc2cccnc2)C1 | -1.68%
5 | CC(C)CNC(=O)c1ccc2c(c1)nc1n2CCN(Cc2ccco2)C1 | -0.527%
6 | CCOC(=O)Cc1cs/c(=N/C(=O)COc2cnc(C)cc2O)[nH]1 | 5.42%
7 | Cc1cc(O)c(OCC(=O)Nc2nccs2)cn1 | -21.7%
8 | COCCNC(=O)c1c(-n2cnnn2)sc2c1CCCC2 | -4.74%
9 | Oc1nc(N2CCOCC2)nc2nccc(-c3ccccn3)c12 | -4.58%
10 | CNc1nc2c(s1)C(c1ccc(F)cc1Cl)CC(=O)N2 (configuration not stated) | 2.52%
11 | CCc1c(C(=O)O)nnn1-c1cccc(C)c1C | -7.95%
12 | Cc1ccc(-n2nnc(C(=O)O)c2C)c(C)c1 | 0.943%
13 | Cc1cc(=O)n(CC(=O)NCC2CCCO2)c(-c2ccc(F)cc2)n1 (configuration not stated) | 13%
14 | Cc1cc(C)n(Cc2cccc(C(=O)NCCN3CCOCC3)c2)n1 | -6.51%
15 | Cc1nn(C)c2c(NCc3cccnc3)nc(C3CC3)nc12 | -3.52%
16 | Cc1nc(C)c(C(=O)N2CCc3nnc(C4CCCCN4C)n3CC2)o1 (configuration not stated) | 0.605%
17 | CCn1nc(C)c(CN2CCC(c3ccn[nH]3)C2)c1C (configuration not stated) | 4.91%
18 | O=C1CCOC[C@]2(CN(Cc3ccccc3)C[C@H]2c2cccc(F)c2)N1 | -2.96%
19 | CC(CN(C)C)Nc1nc(O)cc(Cc2ccccc2F)n1 (configuration not stated) | 4.28%
20 | CC(C)CC(=O)N1CCC(Nc2nc(O)cc(-c3ccsc3)n2)CC1 | 11.2%
21 | CC1(C(=O)NCCCOc2ccccc2F)CC(=O)N2C=CC=CC2=N1 (configuration not stated) | 0.00385%
22 | Cc1cc(C)nc(N2CCC(c3cccc(CCC(=O)O)n3)CC2)n1 | -9.41%
23 | O=C(Cc1ccccc1)NCc1ccc(-c2ccccc2C(=O)O)cn1 | 1.3%

Row | SMILES | cytotoxicity at 70.5 h
24 | OCCN1CCC(c2csc(Nc3cnccn3)n2)CC1 | 14.5%
25 | CC(=O)N1CCCC(c2nccnc2Nc2nc(C)cc(C)n2)C1 (configuration not stated) | 13.3%
26 | CC(=O)NCc1ccc(-c2ccccc2C(=O)O)cn1 | -1.2%
27 | c1cnnc(N[C@@H]2CC[C@@H]3CN(Cc4c[nH]c5ccccc45)C[C@@H]32)c1 | 4.96%
28 | O=C(c1ccc2c(c1)CCC2)N1CCn2ncnc2C1 | 3.48%
29 | COCC(=O)NCCn1nc(-c2cc(C)oc2C)ccc1=O | -2.12%
30 | CNC(=O)CCc1cc(C2CCCCN2C(C)C)nc(C)n1 (configuration not stated) | -1.6%
31 | CNC(=O)CCc1cc(C2CCCCN2C)nc(C)n1 (configuration not stated) | -7.9%
32 | COCCC(=O)N1Cc2nc3c(C)c(-c4cccs4)nn3c(O)c2C1 | -14.7%
33 | Cc1ccc(C(=O)N2CCC(c3noc(-c4cccnc4)n3)CC2)cn1 | -3.32%
34 | Cc1c(-c2cccs2)nn2c(O)c3c(nc12)CN(C(=O)C1CC1)C3 | -4.82%
35 | Cc1cc2c(cc1Cl)C=CC1(CCN(C(=O)N3CCOCC3)CC1)O2 | 22%
36 | Cc1cc2c(cc1Cl)C=CC1(CCN(CC(=O)N3CCCC3)CC1)O2 | 2.51%
37 | Cc1cc2c(cc1Cl)C=CC1(CCN(CC(=O)NC3CCCC3)CC1)O2 | -1.12%
38 | Cc1ccc(-c2cc(N)c(=O)n(C(C)C(N)=O)n2)o1 (configuration not stated) | -5.11%
39 | O=C1CCC(c2nc(C3CCN(C(=O)Cc4cccs4)CC3)no2)N1 (configuration not stated) | -6.58%
40 | O[C@@H]1C[C@H]2CN(Cc3ccsc3)[C@@H](Cc3ccccc3)CN2C1 | -1.32%
41 | Cc1cc(N(C)C)nc(C2COCCN2Cc2nccn2C)n1 (configuration not stated) | -6.31%
42 | CN(C)c1ncc(-c2ccc(C(N)=O)cc2)c(C2CNCCO2)n1 (configuration not stated) | -4.35%
43 | Nc1ncc(-c2ccc(F)cc2)c(C2CCCNC2)n1 (configuration not stated) | 24.3%
44 | Cc1nn(C)c(C)c1-c1nccnc1CC1CCNCC1 | -1.07%
45 | Cc1cn[nH]c1C1COCCN1C(=O)c1ccc2[nH]nnc2c1 (configuration not stated) | -4.19%
46 | CNc1cc(C)nc(C2COCCN2Cc2csc(C)n2)n1 (configuration not stated) | -9.53%

Row | SMILES | cytotoxicity at 70.5 h
47 | COc1cccc(CC(=O)N2CCC(c3ccn4nccc4n3)CC2)c1 | -3.73%
48 | c1cc(NC2CC3(CCN(Cc4cscn4)C3)C2)ncn1 (configuration not stated) | -7.63%
49 | O=C(NC[C@]1(O)CCN(Cc2ccsc2)C[C@H]1O)c1c[nH]cn1 | -9.1%
50 | O[C@@H]1C[C@H]2CN(Cc3ccccc3Cl)[C@H](Cc3ccccc3)CN2C1 | 25.5%
51 | CN[C@@H]1CCC[C@@H](Oc2ccccc2Oc2ccc(C)cc2)[C@@H]1O | 22.2%
52 | CC(=O)N1CCCC(c2ccc(CO)c(-c3c(C)noc3C)n2)C1 (configuration not stated) | 27.2%
53 | CNC(=O)CCc1cc(C2CCCN2C(=O)CO)nc(C)n1 (configuration not stated) | -5.79%
54 | O=C(c1cc2cccc(F)c2[nH]1)N1C[C@@H](O)[C@H](N2CCCC2)C1 | -4.92%
55 | Cc1cc(N2CCC(O)(CN(C)C(=O)CCN)CC2)c2cnccc2n1 | -5.17%
56 | CCC1CNCc2cc3c(C)ccc(C)c3nc2O1 (configuration not stated) | -1.78%
57 | Cc1ncsc1-c1cc(C(=O)NCCO)ccn1 | 21.2%
58 | Cc1ccnc(C2CCN(C(=O)c3cnn(C)c3)CC2)n1 | 23.3%
59 | COCCN1CCC(Cc2cnc(-c3ccccc3C(=O)O)cn2)CC1 | 8.51%
60 | COCCN1C(=O)CO[C@H]2CN(Cc3ccccc3Cl)C[C@@H]21 | -9.25%
61 | Cc1ncc(CNC(=O)CCc2cccs2)c(C2CCCN2C)n1 (configuration not stated) | -4.28%
62 | COc1cccc(CN2CC[C@H](NC(C)=O)[C@@H](O)CC2)c1F | -1.47%
63 | CC(=O)N1CCN([C@@H]2CC[C@@H](NC(=O)c3ccc(C)nc3)[C@H]2O)CC1 | -5.95%
64 | CN1CCC(c2cccc(Cc3ccc(C(F)(F)F)cc3)n2)CC1 | -0.939%
65 | Cc1noc(C)c1-c1cccc(CC2CCN(C(=O)c3cscn3)C2)n1 (configuration not stated) | -5.81%
66 | CC(=O)Nc1nc(C2CCN(C(=O)C3CCC3)CC2)cs1 | -5.93%
67 | CS(=O)(=O)N1CCCC(c2cncc(Nc3ccccn3)n2)C1 (configuration not stated) | -7.64%
68 | NC(=O)C1(c2cnccn2)CCCN1Cc1ccc(Cl)cc1 (configuration not stated) | -9.51%
69 | c1cnc(Nc2cncc(C3CCCN(c4ncccn4)C3)n2)nc1 (configuration not stated) | -7.66%

Row | SMILES | cytotoxicity at 70.5 h
70 | CS(=O)(=O)N1CCCC(Cc2cncc(-c3ccccc3C(=O)O)n2)C1 (configuration not stated) | -12.4%
71 | CN(Cc1ccc(F)cc1)CC1(O)CCN(C(=O)c2ccccn2)C1 (configuration not stated) | -12.9%
72 | CN(Cc1ccc(F)cc1)CC1(O)CCN(C(=O)c2cccs2)C1 (configuration not stated) | 2.73%
73 | O=C(c1ccncc1)N1CCCC1c1nc(O)cc(-c2ccccn2)n1 (configuration not stated) | -2.92%
74 | COc1ncc(CN2CCOC(C)(C(=O)N3CCOCC3)C2)cn1 (configuration not stated) | -4.39%
75 | CN(C)C(=O)CN1CCCC1c1cccc(Cc2ccccc2F)n1 (configuration not stated) | 0.856%
76 | NC(=O)C1(c2cnccn2)CCCN1Cc1ccccn1 (configuration not stated) | -3.76%
77 | NC(=O)C1(c2cnccn2)CCCN1Cc1cccc(Cl)c1 (configuration not stated) | -2.75%
78 | NCC(=O)N1CCC(c2cncc(Oc3cccnc3)n2)CC1 | 1.14%
79 | Cc1ccc(CN2CCCC2(C(N)=O)c2cnccn2)c(C)c1 (configuration not stated) | -0.964%
80 | c1cnc(Nc2cncc(C3CCCN(c4cnccn4)C3)n2)nc1 (configuration not stated) | -5.35%
81 | CN(C)Cc1ccnc(C2CN(CCc3ccccc3)CCO2)n1 (configuration not stated) | 17.9%
82 | CNC(=O)C1(c2cnccn2)CCCN1C(=O)c1c(F)cccc1F (configuration not stated) | 18.1%
83 | Cc1ccccc1-c1cncc(C2CCN(Cc3ccccn3)CC2)n1 | -3.39%
84 | Cc1ccc(CNc2nc(O)cc(C3CC(=O)N(C)C3)n2)cc1 (configuration not stated) | -4.28%
85 | CC(=O)N1CCC(c2nc(C)cc(-c3ccccc3C(=O)O)n2)CC1 | -3.01%
86 | Cc1ccc(CC(=O)N2CCCC(c3n[nH]c4nccnc34)C2)cc1 (configuration not stated) | -1.21%
87 | Cc1cccc(CC(=O)N2CCCC(c3n[nH]c4nccnc34)C2)c1 (configuration not stated) | 14.6%
88 | CNC(=O)c1ccc(C2CN(C(=O)c3c[nH]nc3C)CCO2)nc1 (configuration not stated) | -1.61%
89 | CNc1cccc(C2CCCN(C(=O)c3coc(C)n3)C2)n1 (configuration not stated) | -0.702%
90 | Nc1nc2nc(C3CCCN(C(=O)c4cncs4)C3)ccc2s1 (configuration not stated) | 0.556%
91 | CC1CCN(S(=O)(=O)N2CCC(Oc3cnccn3)CC2)CC1 | -5.91%
92 | CN(C)Cc1cc(C2CCN(C(=O)C3CCCNC3)CC2)nn1C (configuration not stated) | -5.29%

Row | SMILES | cytotoxicity at 70.5 h
93 | CCn1cc(NC(=O)CN2CCC(Oc3ccc(F)cc3)CC2)c(C)n1 | 5.01%
94 | CNC(=O)[C@@H]1CN(C(=O)CCOC)C[C@H]1c1ccnc(N2CCCC2)n1 | -4.83%
95 | CNC(=O)[C@@H]1CN(C(=O)C(C)C)C[C@H]1c1ccnc(N2CCCC2)n1 | -3.61%
96 | CNC(=O)[C@@H]1CN(C(=O)C2CCC2)C[C@H]1c1ccnc(N2CCCC2)n1 | -0.284%
97 | O=C(NC1CCCC1)c1ccnc(C2CCNCC2)c1 | -1.39%
98 | Cc1nccn1CCCn1cncc1-c1ccc2c(c1)CCC(C)N2C (configuration not stated) | -1.7%
99 | Cn1cncc1CN1CCc2nc3sccc3c(=O)n2CC1 | -19.1%
100 | CCOc1ccccc1-c1cc(N)[nH]n1 | -5.47%
101 | Cc1nccn1CCCn1cncc1-c1ccc2c(c1)CCCN2C | -5.52%
102 | CN(C)c1ncc(-c2cncnc2)c(C2CNCCO2)n1 (configuration not stated) | -8.74%
103 | COc1ccc(-c2cnc(N)nc2C2CCCNC2)cc1 (configuration not stated) | 0.112%
104 | CC(C)(C)CC(=O)NCCn1nc(C2CCNC2)c2cccnc21 (configuration not stated) | -6.02%
105 | CNCC(=O)N1CCCC1c1cncc(Oc2ccc(F)cc2)n1 (configuration not stated) | -2.91%
106 | CNC(=O)c1cccc(C2CNCCN2C(=O)c2cccc(F)c2)c1 (configuration not stated) | 25%
107 | CC(=O)N1CCN(c2cc(CCN)nc(C3CC3)n2)CC1 | -1.97%
108 | CC1CCN(c2cc(CCC3CCCN3)ncn2)CC1 (configuration not stated) | -3.6%
109 | NCC(=O)N1CCCC(c2ccnc(Nc3cnccn3)n2)C1 (configuration not stated) | -7.18%
110 | COc1ccc([C@@H]2CN(Cc3ccncc3)C[C@H]2c2cc[nH]n2)cc1 | -7.91%
111 | c1ccc([C@@H]2CN(Cc3cccnc3)C[C@H]2c2cc[nH]n2)cc1 | -7.07%
112 | Cn1ccnc1CN1CCCC(Cc2ccnc3ccncc23)CC1 (configuration not stated) | -5.22%
